In patent US20070197452A1, “Treatment of amyloid-related diseases” (priority 2006, published 2007):
“Also recorded” adds a separate entry of the source.

Columns and labels:
TgCRND8 mice [1] = assay: Morris water maze spatial reference memory test; assay type: in vivo, mouse; conditions: for spatial learning performance compared with non-Tg littermates / spatial learning performance compared with untreated TgCRND8 littermates: 28 days of treatment from 5 months of age, tested at 6 months; for cognitive performance compared with non-Tg mice / cognitive performance compared with untreated TgCRND8 mice / cognitive performance compared with non-Tg littermates: prophylactic
Procedure: Behavioural tests: Morris Water Maze testing was performed as previously described. After non-spatial pre-training, mice underwent place discrimination training for 5 days with 4-trials per day, followed by a cued visible platform to rule out general motivational, learning deficits and motor problems, and a probe trial to evaluate memory. […] Open field test for motor activity was preformed as described previously. Duration of walking, pausing and grooming were analyzed as indices of spontaneous locomotor activity. Sensorimotor function was examined with an EconomexTM accelerating rotarod (Columbus Instruments, Columbus, Ohio), as described elsewhere. The rod was set to accelerate at a rate of 0.2 r.p.m./s, from an initial, constant speed of 5 r.p.m. Latency to fall was recorded in four daily trials, conducted at 30 min intervals. All mice were trained for seven days before testing. The test day performance score for each animal was obtained by summing its latency to fall over the four trials Behavioral tests. Morris water maze testing was carried out as previously described. After nonspatial pretraining, mice underwent place discrimination training for 5 d with four trials per day, followed by a cued visible platform trial and a probe trial. An open-field test for motor activity was carried out as described previously. Sensorimotor function was assessed with an Economex accelerating rotarod (Columbus Instruments) as previously described. Behavioural tests. Morris Water Maze testing was performed as previously described. After non-spatial pre-training, mice underwent place discrimination training for 5 days with 4-trials per day, followed by a cued visible platform to rule out general motivational, learning deficits and motor problems, and a probe trial to evaluate memory. The probe trial was conducted at 72 h after the last testing, and used an annulus-crossing index to assess spatial recall. The annulus-crossing index measures the number of passes over the original platform position relative to passes over the other three quadrants. […] Open field test for motor activity was performed as described previously

TgCRND8 mice [2] = assay: Cerebral amyloid plaque burden (anti-Aβ immunostaining, image analysis); assay type: in vivo, mouse; conditions: for amyloid burden in hippocampus and cerebral cortex: TgCRND8 mice at six months of age; for mean plaque size: prophylactic
Procedure: Cerebral amyloid burden. […] To generate sets of systematic uniform random sections, 5 μm serial sections were collected across the entire hemisphere. Sets of sections at 50 μm intervals were used for analyses (10-14 sections/set). Plaques were identified after antigen retrieval with formic acid, and incubation with primary anti-Aβ antibody (Dako M-0872), followed by secondary antibody (Dako StreptABCcomplex/horseradish kit). End products were visualized with DAB and were counter-stained with luxol fast blue. Amyloid plaque burden was assessed with Leco IA-3001 image analysis software interfaced with Leica microscope and Hitachi KP-M1U CCD video camera. Openlab imaging software (Improvision, Lexington, Mass.) was then used to convert micrographs to binary images for plaque number and plaque area determinations. Vascular amyloid burden was defined as amyloid originating from or surrounding blood vessels and was analysed similarly. Cerebral Aβ burden. […] Sets of sections at […] intervals for analyses (10-14 sections per set) were used. Plaques with primary Aβ-specific antibody (Dako M-0872) were identified and visualized with DAB. AP plaque burden was assessed with Openlab imaging software (Improvision) and used to convert micrographs to binary images for determinations of plaque number and plaque area. Vascular Aβ burden was defined as Aβ plaques originating from or surrounding blood vessels and was analyzed similarly. Cerebral Aβ burden. […] To generate sets of systematic uniform random sections, 5 μm serial sections were collected across the entire hemisphere. Sets of sections at 50 μm intervals were used for analyses (10-14 sections/set). Plaques were identified after antigen retrieval with formic acid, and incubation with primary anti-Aβ antibody (Dako M-0872), followed by secondary antibody (Dako StreptABCcomplex/horseradish kit). End products were visualized with DAB and were counter-stained with luxol fast blue. Aβ plaque burden was assessed with Leco IA-3001 image analysis software interfaced with Leica microscope and Hitachi KP-M1U CCD video camera. Openlab imaging software (Improvision, Lexington, Mass.) was then used to convert micrographs to binary images for plaque number and plaque area determinations. Vascular Aβ burden was defined as Aβ plaques originating from or surrounding blood vessels and was analyzed similarly.

[3] = 1 month Treatment: TgCRND8 mice, oral from 5 to 6 months of age
[4] = 4-month Prophylactic: TgCRND8 mice, oral from 6 weeks to 4 months of age
[5] = 6-month Prophylactic: TgCRND8 mice, oral from 6 weeks to 6 months of age
[6] = TgCRND8 mice with pre-existing disease, 28 days from 5 months of age
[7] = TgCRND8 mice, oral, 28 days from 5 months of age, analysed at 6 months, listed as Epi-cyclohexanchexol

OC1C(O)C(O)C(O)C(O)C1O (stereo not drawn) [epi-cyclohexanehexol, 1,2,3,4,5/6-(epi-) cyclohexanehexol, reference compound]
spatial learning performance compared with non-Tg littermates (TgCRND8 mice [1]): significantly poorer than the performance of their non-Tg littermates; also recorded: remained impaired with respect to non-Tg littermates; also recorded: remained impaired with respect to nontransgenic littermates | spatial learning performance compared with untreated TgCRND8 littermates (TgCRND8 mice [1]): not significantly different from that of untreated TgCRND8 littermates; also recorded: ineffective at reversing behavioral deficits | spatial learning performance compared with non-Tg littermates (TgCRND8 mice [1]; listed as AZD-102): remained impaired with respect to non-Tg littermates | spatial learning performance compared with untreated TgCRND8 littermates (TgCRND8 mice [1]; listed as AZD-102): not different from untreated TgCRND8 littermates | cognitive performance compared with non-Tg mice (TgCRND8 mice [1]; 6 weeks to 4 months of age): significantly different from treated and untreated nontransgenic mice | cognitive performance compared with untreated TgCRND8 mice (TgCRND8 mice [1]; 6 weeks to 4 months of age): significant behavioral improvement | cognitive performance compared with non-Tg mice (TgCRND8 mice [1]; 6 weeks to 4 months of age, listed as AZD-102): significantly different from treated and untreated non-Tg mice | cognitive performance compared with non-Tg littermates (TgCRND8 mice [1]; 6 weeks to 6 months of age): indistinguishable from nontransgenic littermates; also recorded: approached that of nontransgenic littermates | cognitive performance compared with untreated TgCRND8 mice (TgCRND8 mice [1]; 6 weeks to 6 months of age): significantly better cognitive function compared to untreated TgCRND8 littermates | cognitive performance compared with non-Tg littermates (TgCRND8 mice [1]; 6 weeks to 6 months of age, listed as AZD-102): approached that of non-Tg littermates | Mean Plaque Size (μm^2) (TgCRND8 mice [2]; [3]): 346 ± 6 μm^2 | Total Plaque Area (μm^2) (TgCRND8 mice [2]; [3]): 459706 ± 49966 μm^2 | Mean Plaque Size (μm^2) (TgCRND8 mice [2]; [4]): 95 ± 43 μm^2 | Total Plaque Area (μm^2) (TgCRND8 mice [2]; [4]): 65042 ± 5199 μm^2 | Mean Plaque Size (μm^2) (TgCRND8 mice [2]; [5]): 370 ± 9 μm^2 | Total Plaque Area (μm^2) (TgCRND8 mice [2]; [5]): 380456 ± 13498 μm^2 | amyloid burden in hippocampus and cerebral cortex (TgCRND8 mice [2]): modest effect on amyloid burden | amyloid burden in hippocampus and cerebral cortex (TgCRND8 mice [2]; listed as AZD-102): modest effect on amyloid burden | percent area of the brain covered with plaques (TgCRND8 mice [2]; [6]): no significant impact; also recorded: no significant effect | plaque number (TgCRND8 mice [2]; [6]): no significant impact; also recorded: no significant effect | Mean Plaque Size (μm^2) (TgCRND8 mice [2]; [7]): 346 ± 6 μm^2 | Total Plaque Area (μm^2) (TgCRND8 mice [2]; [7]): 459706 ± 49966 μm^2 | Total Plaque Count (TgCRND8 mice [2]; [7]): 1342 ± 114 | mean plaque size (TgCRND8 mice [2]; TgCRND8 mice, 4 months of age): significant decrease in mean plaque size | mean plaque size (TgCRND8 mice [2]; TgCRND8 mice, 6 months of age): reductions were not sustained
